The values below are quoted from earlier work in PMC6272651, “Novel Orally Active Analgesic and Anti-Inflammatory Cyclohexyl-N-Acylhydrazone Derivatives” (Molecules, 2015).

The target of the data set is T1, adenosine receptor, subtype A2A (Rattus norvegicus, UniProt P30543).
T1 construct: gene Adora2a
The data set can be described thus: radioligand displacement of [3H]CGS21680 ([…]) from rat A2A receptors. The following applies: read-out: Binding A2a / % of inhibition ^a. A general note: Displacement assays read how much labelled ligand stays bound in the presence of the test substance.

T1 sequence (P30543 whole entry): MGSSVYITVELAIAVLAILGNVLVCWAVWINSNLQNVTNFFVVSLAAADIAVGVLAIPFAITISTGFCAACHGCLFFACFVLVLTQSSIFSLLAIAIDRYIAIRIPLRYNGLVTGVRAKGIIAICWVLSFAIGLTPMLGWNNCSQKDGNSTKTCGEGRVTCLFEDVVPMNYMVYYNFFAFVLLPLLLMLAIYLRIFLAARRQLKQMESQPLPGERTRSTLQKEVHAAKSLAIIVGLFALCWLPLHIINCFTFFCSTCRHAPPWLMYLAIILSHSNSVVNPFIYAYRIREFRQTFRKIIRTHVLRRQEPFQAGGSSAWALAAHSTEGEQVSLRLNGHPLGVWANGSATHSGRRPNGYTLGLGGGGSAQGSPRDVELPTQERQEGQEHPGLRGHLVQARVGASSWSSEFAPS

As for `O=C(N/N=C/c1cccs1)c1ccc2c(c1)OCO2` [compound 8, (E)-N'-((thiophen-2-yl)methylene)benzo[d][1,3]dioxole-5-carbohydrazide], the Ki was 8.2 µM.
